Test system: patients with advanced gastric cancer and cholangiocarcinoma
Test: Safety assessments
Format: in vivo, human
[1] = 16 evaluable patients, 140 mg once daily

## CNC(=O)n1ccc2cc(Oc3ccnc(NC(=O)c4ccc(C5CCN(CCO)CC5)cc4)c3)c(OCCOC)cc21 [Tasurgratinib]
140 mg once daily, N = 16
  Malaise, TEAEs All grades: 2 (12.5) n (%)
  Malaise, TEAEs Grade ≥3: 0 (0.0) n (%)
  Malaise, TRAEs All grades: 2 (12.5) n (%)
  Malaise, TRAEs Grade ≥3: 0 (0.0) n (%)
  Nail disorder, TEAEs All grades: 2 (12.5) n (%)
  Nail disorder, TEAEs Grade ≥3: 0 (0.0) n (%)
  Nail disorder, TRAEs All grades: 2 (12.5) n (%)
  Nail disorder, TRAEs Grade ≥3: 0 (0.0) n (%)
  Nasopharyngitis, TEAEs All grades: 2 (12.5) n (%)
  Nasopharyngitis, TEAEs Grade ≥3: 0 (0.0) n (%)
  Nasopharyngitis, TRAEs All grades: 0 (0.0) n (%)
  Nasopharyngitis, TRAEs Grade ≥3: 0 (0.0) n (%)
  PPE syndrome, TEAEs All grades: 10 (62.5) n (%)
  PPE syndrome, TEAEs Grade ≥3: 0 (0.0) n (%)
  PPE syndrome, TRAEs All grades: 10 (62.5) n (%)
  PPE syndrome, TRAEs Grade ≥3: 0 (0.0) n (%)
  Paronychia, TEAEs All grades: 9 (56.3) n (%)
  Paronychia, TEAEs Grade ≥3: 0 (0.0) n (%)
  Paronychia, TRAEs All grades: 8 (50.0) n (%)
  Paronychia, TRAEs Grade ≥3: 0 (0.0) n (%)
  Platelet count decreased, TEAEs All grades: 2 (12.5) n (%)
  Platelet count decreased, TEAEs Grade ≥3: 0 (0.0) n (%)
  Platelet count decreased, TRAEs All grades: 1 (6.3) n (%)
  Platelet count decreased, TRAEs Grade ≥3: 0 (0.0) n (%)
  Pruritus, TEAEs All grades: 2 (12.5) n (%)
  Pruritus, TEAEs Grade ≥3: 0 (0.0) n (%)
  Pruritus, TRAEs All grades: 2 (12.5) n (%)
  Pruritus, TRAEs Grade ≥3: 0 (0.0) n (%)
  Pyrexia, TEAEs All grades: 3 (18.8) n (%)
  Pyrexia, TEAEs Grade ≥3: 0 (0.0) n (%)
  Pyrexia, TRAEs All grades: 1 (6.3) n (%)
  Pyrexia, TRAEs Grade ≥3: 0 (0.0) n (%)
  Stomatitis, TEAEs All grades: 6 (37.5) n (%)
  Stomatitis, TEAEs Grade ≥3: 1 (6.3) n (%)
  Stomatitis, TRAEs All grades: 6 (37.5) n (%)
  Stomatitis, TRAEs Grade ≥3: 0 (0.0) n (%)
  Tumor pain, TEAEs All grades: 2 (12.5) n (%)
  Tumor pain, TEAEs Grade ≥3: 1 (6.3) n (%)
  Tumor pain, TRAEs All grades: 0 (0.0) n (%)
  Tumor pain, TRAEs Grade ≥3: 0 (0.0) n (%)
  Tumor‐associated fever, TEAEs All grades: 2 (12.5) n (%)
  Tumor‐associated fever, TEAEs Grade ≥3: 0 (0.0) n (%)
  Tumor‐associated fever, TRAEs All grades: 0 (0.0) n (%)
  Tumor‐associated fever, TRAEs Grade ≥3: 0 (0.0) n (%)
  Vomiting, TEAEs All grades: 2 (12.5) n (%)
  Vomiting, TEAEs Grade ≥3: 1 (6.3) n (%)
  Vomiting, TRAEs All grades: 0 (0.0) n (%)
  Vomiting, TRAEs Grade ≥3: 0 (0.0) n (%)
  Weight decreased, TEAEs All grades: 2 (12.5) n (%)
  Weight decreased, TEAEs Grade ≥3: 0 (0.0) n (%)
  Weight decreased, TRAEs All grades: 0 (0.0) n (%)
  Weight decreased, TRAEs Grade ≥3: 0 (0.0) n (%)
[1]
  any‐grade TEAE: ALT increased: 18.8%
  any‐grade TEAE: AST increased: 25.0%
  any‐grade TEAE: abdominal distension: 25.0%
  any‐grade TEAE: anemia: 25.0%
  any‐grade TEAE: blood alkaline phosphatase increased: 18.8%
  any‐grade TEAE: blood creatinine increased: 31.3%
  any‐grade TEAE: constipation: 18.8%
  any‐grade TEAE: decreased appetite: 43.8%
  any‐grade TEAE: diarrhea: 37.5%
  any‐grade TEAE: dry mouth: 18.8%
  any‐grade TEAE: dry skin: 18.8%
  any‐grade TEAE: dysgeusia: 37.5%
  any‐grade TEAE: hyperphosphatemia: 100%
  any‐grade TEAE: hypoalbuminemia: 18.8%
  any‐grade TEAE: palmar‐plantar erythrodysesthesia (PPE) syndrome: 62.5%
  any‐grade TEAE: paronychia: 56.3%
  any‐grade TEAE: pyrexia: 18.8%
  any‐grade TEAE: stomatitis: 37.5%
16 patients, 140 mg once daily
  any‐grade treatment‐related TEAE: ALT increased: 12.5%
  any‐grade treatment‐related TEAE: AST increased: 18.8%
  any‐grade treatment‐related TEAE: PPE syndrome: 62.5%
  any‐grade treatment‐related TEAE: blood creatinine increased: 18.8%
  any‐grade treatment‐related TEAE: decreased appetite: 12.5%
  any‐grade treatment‐related TEAE: diarrhea: 25.0%
  any‐grade treatment‐related TEAE: dry mouth: 18.8%
  any‐grade treatment‐related TEAE: dry skin: 18.8%
  any‐grade treatment‐related TEAE: dysgeusia: 31.3%
  any‐grade treatment‐related TEAE: hyperphosphatemia: 100%
  any‐grade treatment‐related TEAE: malaise: 12.5%
  any‐grade treatment‐related TEAE: nail disorder: 12.5%
  any‐grade treatment‐related TEAE: paronychia: 50.0%
  any‐grade treatment‐related TEAE: pruritus: 12.5%
  any‐grade treatment‐related TEAE: stomatitis: 37.5%
  grade ≥3 treatment‐related TEAE: AST increased: 1 n
  grade ≥3 treatment‐related TEAE: lipase increased: 1 n
  grade ≥3 treatment‐related TEAE: retinopathy: 1 n
  patients who experienced a TEAE of grade ≥3: 68.8%
Five of 16 patients, 140 mg once daily
  patients with treatment‐emergent SAEs: 31.3%
In five patients, 140 mg once daily
  total treatment‐emergent serious AEs (SAEs) reported: 11
N = 2
  eye disorder: dry eye: 12.5%
Once daily
  recommended dose for subsequent phase II evaluation: 140 mg
One patient (cholecystitis acute and septic shock, not related)
  patients with TEAEs leading to discontinuation of the study drug: 6.3%
Six of 16 patients
  patients with dose reductions due to treatment‐related TEAEs: 37.5%
Thirteen events in seven patients
  patients with eye disorder events: 43.8%
Two of 16 patients, 140 mg once daily
  patients who experienced grade ≥3 treatment‐related TEAEs: 12.5%

Source: paper PMC11711049 (Cancer Science, 2024)
